Laboratory results published in ChEMBL document CHEMBL5338756, “Dual-Acting Small Molecules: Subtype-Selective Cannabinoid Receptor 2 Agonist/Butyrylcholinesterase Inhibitor Hybrids Show Neuroprotection in an Alzheimer's Disease Mouse Model” (J Med Chem, 2023).
Values joined by “and” are separate entries in the source; they are usually repeats but may differ in a detail not shown here. Equal values may be shown once.

Tests used:
Acetylcholinesterase [1] = target: T1, Acetylcholinesterase (Homo sapiens, UniProt P22303)
T1 sequence (P22303 whole entry): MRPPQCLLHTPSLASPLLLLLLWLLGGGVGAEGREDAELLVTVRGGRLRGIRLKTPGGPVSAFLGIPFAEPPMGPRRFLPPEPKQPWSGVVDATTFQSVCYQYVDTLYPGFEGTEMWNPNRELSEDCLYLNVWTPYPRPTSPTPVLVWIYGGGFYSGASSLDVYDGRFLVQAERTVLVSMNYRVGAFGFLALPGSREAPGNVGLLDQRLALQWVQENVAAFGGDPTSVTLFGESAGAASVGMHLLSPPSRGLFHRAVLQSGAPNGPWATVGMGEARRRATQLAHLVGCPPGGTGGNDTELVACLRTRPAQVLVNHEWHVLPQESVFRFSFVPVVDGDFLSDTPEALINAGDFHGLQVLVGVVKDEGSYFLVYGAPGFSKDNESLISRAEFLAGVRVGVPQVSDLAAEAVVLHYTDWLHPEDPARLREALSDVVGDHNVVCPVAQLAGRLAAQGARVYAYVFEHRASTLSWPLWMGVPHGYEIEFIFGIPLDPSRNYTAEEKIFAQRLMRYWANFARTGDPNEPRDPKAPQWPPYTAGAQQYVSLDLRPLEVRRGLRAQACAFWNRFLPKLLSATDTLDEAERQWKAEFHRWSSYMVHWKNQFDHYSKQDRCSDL

Cholinesterase [2] = target: T2, Cholinesterase (Homo sapiens, UniProt P06276)
T2 sequence (P06276 whole entry): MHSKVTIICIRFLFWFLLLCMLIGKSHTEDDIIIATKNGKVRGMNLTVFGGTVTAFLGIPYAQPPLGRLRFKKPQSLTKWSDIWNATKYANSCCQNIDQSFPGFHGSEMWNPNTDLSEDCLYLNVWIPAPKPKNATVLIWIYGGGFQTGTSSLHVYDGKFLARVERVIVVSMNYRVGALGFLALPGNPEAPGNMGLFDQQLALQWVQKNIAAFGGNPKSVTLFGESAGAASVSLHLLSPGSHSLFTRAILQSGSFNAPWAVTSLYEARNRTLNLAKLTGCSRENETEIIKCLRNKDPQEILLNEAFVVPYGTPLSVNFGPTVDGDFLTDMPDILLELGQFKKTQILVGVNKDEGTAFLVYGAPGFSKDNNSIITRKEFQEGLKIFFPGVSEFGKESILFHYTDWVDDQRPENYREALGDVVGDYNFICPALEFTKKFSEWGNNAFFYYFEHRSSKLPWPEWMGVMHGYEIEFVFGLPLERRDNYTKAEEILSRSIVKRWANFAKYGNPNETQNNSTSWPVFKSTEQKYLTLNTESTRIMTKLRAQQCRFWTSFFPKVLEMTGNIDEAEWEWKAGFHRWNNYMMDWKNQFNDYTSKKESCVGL

Cannabinoid receptor 2 [3] = target: T3, Cannabinoid receptor 2 (Homo sapiens, UniProt P34972); assay: Displacement of [3H]CP55940 from human CB2 receptor expressed in HEK293 cell membrane at 10 uM incubated for 3 hrs by scintillation counter analysis relative to control; type: cell membranes
T3 sequence (P34972 whole entry): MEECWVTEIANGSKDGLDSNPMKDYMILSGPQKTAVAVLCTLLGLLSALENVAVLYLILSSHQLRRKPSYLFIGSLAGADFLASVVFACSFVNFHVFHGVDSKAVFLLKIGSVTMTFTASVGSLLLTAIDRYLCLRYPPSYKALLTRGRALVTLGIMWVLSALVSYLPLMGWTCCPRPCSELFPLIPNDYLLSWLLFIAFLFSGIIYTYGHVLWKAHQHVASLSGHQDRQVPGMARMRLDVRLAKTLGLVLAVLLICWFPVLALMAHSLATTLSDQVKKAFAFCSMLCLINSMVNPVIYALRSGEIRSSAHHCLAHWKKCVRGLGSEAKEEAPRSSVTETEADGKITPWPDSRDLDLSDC

Cannabinoid receptor 2 [4] = target: T3, Cannabinoid receptor 2; assay: biochemical
Description: Displacement of [3H]CP55940 from human CB2 receptor stably expressed in HEK293 cells by Cheng-Prusoff equation analysis

Cannabinoid receptor 2 [5] = target: T3, Cannabinoid receptor 2
Cannabinoid receptor 2 [6] = target: T3, Cannabinoid receptor 2; remark: listed apart in the source
Description: Displacement of [3H]CP55940 from human CB2 receptor expressed in HEK293 cell membrane incubated for 3 hrs by scintillation counter analysis

Cannabinoid receptor 2 [7] = target: T3, Cannabinoid receptor 2; assay: Agonist activity at human CB2 receptor stably expressed in HEK293 cells assessed as induction of beta-arrestin 2 recruitment at 10 uM incubated for 2 hrs by luminescence based assay relative to CP55940; type: functional, cell-based; details: filed as agonist
Cannabinoid receptor 2 [8] = target: T3, Cannabinoid receptor 2; remark: listed apart in the source
Description: Agonist activity at human CB2 receptor stably expressed in HEK293 cells assessed as induction of beta-arrestin 2 recruitment incubated for 2 hrs by luminescence based assay

Cholinesterase [9] = target: T2, Cholinesterase; remark: listed apart in the source
[10] = target: Cannabinoid receptor 1 (Rattus norvegicus) (UniProt P20272); assay: Displacement of [3H]CP55940 from rat brain membrane CB1 receptor at 10 uM incubated for 3 hrs by scintillation counter analysis relative to control; type: cell membranes
Sequence of Cannabinoid receptor 1 (Rattus norvegicus) (P20272 whole entry): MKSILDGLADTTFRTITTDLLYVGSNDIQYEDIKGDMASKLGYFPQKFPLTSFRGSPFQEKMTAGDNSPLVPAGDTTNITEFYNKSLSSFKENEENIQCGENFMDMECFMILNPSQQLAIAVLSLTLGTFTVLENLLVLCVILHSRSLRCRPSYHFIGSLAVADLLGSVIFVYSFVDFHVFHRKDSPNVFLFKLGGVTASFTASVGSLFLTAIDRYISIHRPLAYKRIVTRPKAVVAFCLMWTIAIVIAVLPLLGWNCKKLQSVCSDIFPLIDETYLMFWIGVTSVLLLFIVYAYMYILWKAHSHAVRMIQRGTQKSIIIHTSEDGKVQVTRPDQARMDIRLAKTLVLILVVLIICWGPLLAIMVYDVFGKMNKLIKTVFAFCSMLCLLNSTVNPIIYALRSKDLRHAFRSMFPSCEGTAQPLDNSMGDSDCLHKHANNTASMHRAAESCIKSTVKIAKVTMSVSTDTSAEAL

Cannabinoid receptor 2 [11] = target: T3, Cannabinoid receptor 2; assay: Agonist activity at human CB2 receptor stably expressed in CHO-K1 cells co-expressing Galphaq16 by Fluo-4AM dye based calcium mobilization assay relative to CP55940; type: functional, cell-based
Acetylcholinesterase [12] = target: T1, Acetylcholinesterase; remark: listed apart in the source
Mus musculus [13] = assay: (§1) Synergistic neuroprotective activity against amyloid beta (25 to 35) induced Alzheimer's disease Swiss mouse model assessed as combination index at 0.1 mg/kg, ip administered once daily for day 1 to day 7 […] and measured on day 8 in presence of 2-benzyl-N,N-diethyl-1-isopentyl-1H-benzo[d]imidazole-5-carboxamide by spontaneous alternation performance test; type: functional
Mus musculus [14] = assay: as §1, with “0.1 to 1” for “0.1”, “9 and 10” for “8”, “step-through passive avoidance” for “spontaneous alternation performance”; type: functional; details: dose 0.1-1 mg/kg

Structure (SMILES)	IC50 (Cannabinoid receptor 2 [6]) [nM]	IC50 (Cholinesterase [9])	Activity [10] [%]	IC50 (Acetylcholinesterase [12])	Activity ([10]; filed as agonist) [%]	also measured
O=c1cc(-c2ccc(O)cc2)oc2ccccc12	–	–	–	–	–	IC50 (Acetylcholinesterase [1]): 1500 nM; IC50 (Cholinesterase [2]): 304 nM
CCN(CC)C(=O)c1ccc2c(c1)nc(Cc1ccc(OC(=O)NC)cc1)n2CCC(C)C	–	–	–	–	–	Activity (Cannabinoid receptor 2 [3]): 33%
NCCOCCOc1ccc(-c2cc(=O)c3ccccc3o2)cc1	–	–	–	–	–	Ki (Cannabinoid receptor 2 [4]): 20 nM; IC50 (Cholinesterase [2]): 13400 nM
CCN(CC)C(=O)c1ccc2c(c1)nc(Cc1ccc(OC(=O)N(C)C)cc1)n2CCC(C)C	780	620 nM	< 10	8.66 µM	–	EC50 (Cannabinoid receptor 2 [5]): 244 nM; Emax (Cannabinoid receptor 2 [7]): 79%; EC50 (Cannabinoid receptor 2 [8]): 82 nM; Emax (Cannabinoid receptor 2 [11]; filed as agonist): 42%
Cc1cc([N+](=O)[O-])c2oc(-c3ccc(OCCOCCNC(=O)OC(C)(C)C)cc3)cc(=O)c2c1	–	–	–	–	–	Ki (Cannabinoid receptor 2 [4]): 764 nM; CI (Mus musculus [13]): 0.49; IC50 (Cholinesterase [2]): 1600 nM; CI (Mus musculus [14]): 0.65
CCN(CC)C(=O)c1ccc2c(c1)nc(Cc1ccc(OC(=O)N(C)c3ccccc3)cc1)n2CCC(C)C	3850	10100 nM	25	3.46 µM	–	–
CCN(C)C(=O)Oc1ccc(Cc2nc3cc(C(=O)N(CC)CC)ccc3n2CCC(C)C)cc1	11000	330 nM	–	> 25.1 µM	40	–
CCOc1ccc(Cc2nc3cc(OC(=O)N4CCCC4)ccc3n2CCC(C)C)cc1	1520	3580 nM and 3160 nM	–	> 25.1 µM	49	–
CCOc1ccc(Cc2nc3cc(OC(=O)N(C)C)ccc3n2CCC(C)C)cc1	1190	> 25100 nM	–	> 25.1 µM	57	–
CCN(CC)C(=O)c1ccc2c(c1)nc(Cc1ccc(OC(=O)N(C)Cc3ccccc3)cc1)n2CCC(C)C	2600	390 nM	–	9.01 µM	51	–
O=c1cc(-c2ccc(O)cc2)oc2cccc(OCc3ccccc3)c12	–	–	–	–	–	IC50 (Acetylcholinesterase [1]): 711 nM; IC50 (Cholinesterase [2]): 6.9 nM
CCN(CC)C(=O)Oc1ccc(Cc2nc3cc(C(=O)N(CC)CC)ccc3n2CCC(C)C)cc1	–	4220 nM	–	> 25.1 µM	43	Activity (Cannabinoid receptor 2 [3]): < 10%
CCN(CC)C(=O)c1ccc2c(c1)nc(Cc1ccccc1)n2CCC(C)C	–	50 nM	–	> 25.1 µM	–	IC50 (Acetylcholinesterase [1]): 3800 nM; IC50 (Cholinesterase [2]): 6.4 nM
CCN(CC)C(=O)c1ccc2c(c1)nc(Cc1ccc(O)cc1)n2CCC(C)C	2210	> 25100 nM	10	–	–	–
CCOc1ccc(Cc2nc3cc(O)ccc3n2CCC(C)C)cc1	5530	–	19	> 25.1 µM	–	–
CC(C)(C)OC(=O)NCCOCCOc1ccc(-c2cc(=O)c3c(OCc4ccccc4)cccc3o2)cc1	–	–	–	–	–	Ki (Cannabinoid receptor 2 [4]): 2000 nM; IC50 (Cholinesterase [2]): 1780 nM
CCCN(C)C(=O)Oc1ccc(Cc2nc3cc(C(=O)N(CC)CC)ccc3n2CCC(C)C)cc1	–	1060 nM	–	> 25.1 µM	46	–
CCN(CC)C(=O)c1ccc2c(c1)nc(Cc1ccc(OC(=O)NCc3ccccc3)cc1)n2CCC(C)C	11000	190 nM	< 10	4.5 µM and 3.98 µM	–	EC50 (Cannabinoid receptor 2 [5]): 7710 nM; Emax (Cannabinoid receptor 2 [11]): 22%
CCNC(=O)Oc1ccc(Cc2nc3cc(C(=O)N(CC)CC)ccc3n2CCC(C)C)cc1	–	810 nM	37	> 25.1 µM	–	Activity (Cannabinoid receptor 2 [3]): 19%
CCN(CC)C(=O)c1ccc2c(c1)nc(Cc1ccc(OC(=O)NC3CC3)cc1)n2CCC(C)C	–	70 nM and 79.4 nM	32	> 25.1 µM	–	Activity (Cannabinoid receptor 2 [3]; filed as agonist): 50%
CCOc1ccc(Cc2nc3cc(OC(=O)N4CCC4)ccc3n2CCC(C)C)cc1	1020	150 nM	–	> 25.1 µM	41	EC50 (Cannabinoid receptor 2 [5]): 1300 nM; EC50 (Cannabinoid receptor 2 [8]): 42.6 nM; Emax (Cannabinoid receptor 2 [11]; filed as agonist): 68%
CCOc1ccc(Cc2nc3cc(OC(=O)NC4CC4)ccc3n2CCC(C)C)cc1	1010	1350 nM	22	> 25.1 µM	–	–
Cc1c(C(=O)NN2CCCCC2)nn(-c2ccc(Cl)cc2Cl)c1-c1ccc(Cl)cc1	–	–	–	–	–	Activity (Cannabinoid receptor 2 [3]): < 10%
CCOc1ccc(Cc2nc3cc(OC(=O)N(C)CC)ccc3n2CCC(C)C)cc1	580	2900 nM	–	> 25.1 µM	80	–
CC(C)(C)OC(=O)NCCOCCOc1ccc(-c2cc(=O)c3ccccc3o2)cc1	–	–	–	–	–	Ki (Cannabinoid receptor 2 [4]): 4500 nM; IC50 (Cholinesterase [2]): 2 nM
